{
  "source": "patent US6737383B1",
  "about": "“Herbicidal oxadiazolidines” (priority 1999, dated 2004)",
  "key": {"bamyardgrass": {"tested_on": "bamyardgrass", "experiment": "Test B flood test barnyardgrass", "assay_type": "in vivo, Echinochloa crus-galli", "summary_of_the_method": "(§1)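 Each value is a visual injury score relative to controls, with 10 meaning complete control and 0 no effect. Evaluation took place twelve to sixteen days after the 2-leaf-stage plants were treated and kept in the greenhouse.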"}, "pigweed": {"tested_on": "pigweed", "experiment": "Test B pre/postemergence pigweed", "assay_type": "in vivo, Amaranthus retroflexus", "conditions": "Preemergence", "summary_of_the_method": "(§2)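 Response is a visual 0-to-10 score relative to untreated plants, where 0 means no effect and 10 means complete control, taken twelve to sixteen days after application. Treatments went onto soil at planting and onto foliage of 1- to 4-leaf plants, using a surfactant-containing non-phytotoxic solvent.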"}, "crabgrass": {"tested_on": "crabgrass", "experiment": "Test B pre/postemergence crabgrass", "assay_type": "in vivo, Digitaria sanguinalis", "conditions": "Preemergence", "summary_of_the_method": "as §2"}, "cocklebur": {"tested_on": "cocklebur", "experiment": "Test B pre/postemergence cocklebur", "assay_type": "in vivo, Xanthium strumarium", "conditions": "Preemergence", "summary_of_the_method": "as §2"}, "smallflower flatsedge": {"tested_on": "smallflower flatsedge", "experiment": "Test B flood test smallflower flatsedge", "assay_type": "in vivo, Cyperus difformis", "summary_of_the_method": "as §1"}, "surinam grass": {"tested_on": "surinam grass", "experiment": "Test B pre/postemergence surinam grass", "assay_type": "in vivo, Brachiaria decumbens", "conditions": "Preemergence", "summary_of_the_method": "as §2"}, "sugar beet": {"tested_on": "sugar beet", "experiment": "Test B pre/postemergence sugar beet", "assay_type": "in vivo, Beta vulgaris", "conditions": "Preemergence", "summary_of_the_method": "as §2"}, "wild oat": {"tested_on": "wild oat", "experiment": "Test B pre/postemergence wild oat", "assay_type": "in vivo, Avena fatua", "conditions": "Preemergence", "summary_of_the_method": "as §2"}, "purple nutsedge": {"tested_on": "purple nutsedge", "experiment": "Test B pre/postemergence purple nutsedge", "assay_type": "in vivo, Cyperus rotundus", "conditions": "Preemergence", "summary_of_the_method": "as §2"}, "velvetleaf": {"tested_on": "velvetleaf", "experiment": "Test B pre/postemergence velvetleaf", "assay_type": "in vivo, Abutilon theophrasti", "conditions": "Preemergence", "summary_of_the_method": "as §2"}, "blackgrass": {"tested_on": "blackgrass", "experiment": "Test B pre/postemergence blackgrass", "assay_type": "in vivo, Alopecurus myosuroides", "conditions": "Preemergence", "summary_of_the_method": "as §2"}, "corn": {"tested_on": "corn", "experiment": "Test B pre/postemergence corn", "assay_type": "in vivo, Zea mays", "conditions": "Preemergence", "summary_of_the_method": "as §2"}, "rice": {"tested_on": "rice", "experiment": "Test B flood test rice", "assay_type": "in vivo, Oryza sativa", "summary_of_the_method": "as §1"}, "duck salad": {"tested_on": "duck salad", "experiment": "Test B flood test duck salad", "assay_type": "in vivo, Heteranthera limosa", "summary_of_the_method": "as §1"}, "rape": {"tested_on": "rape", "experiment": "Test B pre/postemergence rape", "assay_type": "in vivo, Brassica napus", "conditions": "Preemergence", "summary_of_the_method": "as §2"}, "giant foxtail": {"tested_on": "giant foxtail", "experiment": "Test B pre/postemergence giant foxtail", "assay_type": "in vivo, Setaria faberii", "conditions": "Preemergence", "summary_of_the_method": "as §2"}, "morningglory": {"tested_on": "morningglory", "experiment": "Test B pre/postemergence morningglory", "assay_type": "in vivo, Ipomoea hederacea", "conditions": "Preemergence", "summary_of_the_method": "as §2"}, "wheat": {"tested_on": "wheat", "experiment": "Test B pre/postemergence wheat", "assay_type": "in vivo, Triticum aestivum", "conditions": "Preemergence", "summary_of_the_method": "as §2"}, "bedstraw": {"tested_on": "bedstraw", "experiment": "Test B pre/postemergence bedstraw", "assay_type": "in vivo, Galium aparine", "conditions": "Preemergence", "summary_of_the_method": "as §2"}, "soybean": {"tested_on": "soybean", "experiment": "Test B pre/postemergence soybean", "assay_type": "in vivo, Glycine max", "conditions": "Preemergence", "summary_of_the_method": "as §2"}, "[1]": {"conditions": "Pre-emergence, Rate 62 g/ha, scale 0 to 10, 0 is no effect, 10 is complete control"}, "[2]": {"conditions": "Rate 125 g/ha, Pre-emergence section (flood test species), scale 0 to 10, 0 no effect, 10 complete control"}, "[3]": {"conditions": "Rate 250 g/ha, Pre-emergence (flood test species), scale 0 to 10, 0 is no effect, 10 is complete control"}, "[4]": {"conditions": "Rate 500 g/ha, Pre-emergence section of Table B, 0 to 10 scale (0 no effect, 10 complete control)"}, "[5]": {"conditions": "Rate 62 g/ha, scale of 0 to 10 where 0 is no effect and 10 is complete control"}, "[6]": {"conditions": "Rate 125 g/ha, scale of 0 to 10 where 0 is no effect and 10 is complete control"}, "[7]": {"conditions": "Rate 250 g/ha, scale 0 (no effect) to 10 (complete control)"}, "[8]": {"conditions": "Rate 500 g/ha, scale of 0 to 10 where 0 is no effect and 10 is complete control"}},
  "data": [
    {"smiles": "CC(C)N(C(=O)n1oc(=O)n(CC2CCCCO2)c1=O)c1ccc(F)cc1F", "note": "(stereo not shown) [Compound 715]", "values": [
      {"measurement": "Barnyardgrass plant response rating", "setting": "bamyardgrass; [1]", "result": 0},
      {"measurement": "Barnyardgrass plant response rating", "setting": "bamyardgrass; [2]", "result": 0},
      {"measurement": "Barnyardgrass plant response rating", "setting": "bamyardgrass; [3]", "result": 0},
      {"measurement": "Barnyardgrass plant response rating", "setting": "bamyardgrass; [4]", "result": 0},
      {"measurement": "Redroot pigweed plant response rating", "setting": "pigweed; [5]", "result": 8},
      {"measurement": "Plant response rating, Redroot pigweed", "setting": "pigweed; [6]", "result": 9},
      {"measurement": "Redroot pigweed plant response rating", "setting": "pigweed; [7]", "result": 10},
      {"measurement": "Crabgrass plant response rating", "setting": "crabgrass; [5]", "result": 9},
      {"measurement": "Plant response rating, Crabgrass", "setting": "crabgrass; [6]", "result": 9},
      {"measurement": "Crabgrass plant response rating", "setting": "crabgrass; [7]", "result": 10},
      {"measurement": "Cocklebur plant response rating", "setting": "cocklebur; [5]", "result": 0},
      {"measurement": "Plant response rating, Cocklebur", "setting": "cocklebur; [6]", "result": 0},
      {"measurement": "Cocklebur plant response rating", "setting": "cocklebur; [7]", "result": 0},
      {"measurement": "Plant response rating, Cocklebur", "setting": "cocklebur; [8]", "result": 0},
      {"measurement": "S. Flatsedge plant response rating", "setting": "smallflower flatsedge; [1]", "result": 0},
      {"measurement": "S. Flatsedge plant response rating", "setting": "smallflower flatsedge; [2]", "result": 0},
      {"measurement": "S. Flatsedge plant response rating", "setting": "smallflower flatsedge; [3]", "result": 0},
      {"measurement": "S. Flatsedge plant response rating", "setting": "smallflower flatsedge; [4]", "result": 0},
      {"measurement": "B. signalgrass plant response rating", "setting": "surinam grass; [5]", "result": 8},
      {"measurement": "Plant response rating, B. signalgrass", "setting": "surinam grass; [6]", "result": 8},
      {"measurement": "B. signalgrass plant response rating", "setting": "surinam grass; [7]", "result": 9},
      {"measurement": "Plant response rating, B. signalgrass", "setting": "surinam grass; [8]", "result": 10},
      {"measurement": "Sugarbeets plant response rating", "setting": "sugar beet; [5]", "result": 4},
      {"measurement": "Plant response rating, Sugarbeets", "setting": "sugar beet; [6]", "result": 5},
      {"measurement": "Sugarbeets plant response rating", "setting": "sugar beet; [7]", "result": 7},
      {"measurement": "Wild oats plant response rating", "setting": "wild oat; [5]", "result": 9},
      {"measurement": "Plant response rating, Wild oats", "setting": "wild oat; [6]", "result": 9},
      {"measurement": "Wild oats plant response rating", "setting": "wild oat; [7]", "result": 9},
      {"measurement": "Nutsedge plant response rating", "setting": "purple nutsedge; [5]", "result": 0},
      {"measurement": "Plant response rating, Nutsedge", "setting": "purple nutsedge; [6]", "result": 0},
      {"measurement": "Nutsedge plant response rating", "setting": "purple nutsedge; [7]", "result": 0},
      {"measurement": "Velvetleaf plant response rating", "setting": "velvetleaf; [5]", "result": 0},
      {"measurement": "Plant response rating, Velvetleaf", "setting": "velvetleaf; [6]", "result": 5},
      {"measurement": "Velvetleaf plant response rating", "setting": "velvetleaf; [7]", "result": 6},
      {"measurement": "Blackgrass plant response rating", "setting": "blackgrass; [5]", "result": 9},
      {"measurement": "Plant response rating, Blackgrass", "setting": "blackgrass; [6]", "result": 9},
      {"measurement": "Blackgrass plant response rating", "setting": "blackgrass; [7]", "result": 9},
      {"measurement": "Plant response rating, Blackgrass", "setting": "blackgrass; [8]", "result": 10},
      {"measurement": "Corn plant response rating", "setting": "corn; [5]", "result": 0},
      {"measurement": "Plant response rating, Corn", "setting": "corn; [6]", "result": 0},
      {"measurement": "Corn plant response rating", "setting": "corn; [7]", "result": 2},
      {"measurement": "Rice plant response rating", "setting": "rice; [1]", "result": 0},
      {"measurement": "Rice plant response rating", "setting": "rice; [2]", "result": 0},
      {"measurement": "Rice plant response rating", "setting": "rice; [3]", "result": 0},
      {"measurement": "Rice plant response rating", "setting": "rice; [4]", "result": 0},
      {"measurement": "Ducksalad plant response rating", "setting": "duck salad; [1]", "result": 0},
      {"measurement": "Ducksalad plant response rating", "setting": "duck salad; [2]", "result": 0},
      {"measurement": "Ducksalad plant response rating", "setting": "duck salad; [3]", "result": 0},
      {"measurement": "Ducksalad plant response rating", "setting": "duck salad; [4]", "result": 0},
      {"measurement": "Rape plant response rating", "setting": "rape; [5]", "result": 2},
      {"measurement": "Plant response rating, Rape", "setting": "rape; [6]", "result": 8},
      {"measurement": "Rape plant response rating", "setting": "rape; [7]", "result": 8},
      {"measurement": "Giant foxtail plant response rating", "setting": "giant foxtail; [5]", "result": 10},
      {"measurement": "Plant response rating, Giant foxtail", "setting": "giant foxtail; [6]", "result": 10},
      {"measurement": "Giant foxtail plant response rating", "setting": "giant foxtail; [7]", "result": 10},
      {"measurement": "Morningglory plant response rating", "setting": "morningglory; [5]", "result": 0},
      {"measurement": "Plant response rating, Morningglory", "setting": "morningglory; [6]", "result": 1},
      {"measurement": "Morningglory plant response rating", "setting": "morningglory; [7]", "result": 2},
      {"measurement": "Wheat plant response rating", "setting": "wheat; [5]", "result": 0},
      {"measurement": "Plant response rating, Wheat", "setting": "wheat; [6]", "result": 0},
      {"measurement": "Wheat plant response rating", "setting": "wheat; [7]", "result": 3},
      {"measurement": "Bedstraw plant response rating", "setting": "bedstraw; [5]", "result": 0},
      {"measurement": "Plant response rating, Bedstraw", "setting": "bedstraw; [6]", "result": 0},
      {"measurement": "Bedstraw plant response rating", "setting": "bedstraw; [7]", "result": 0},
      {"measurement": "Soybean plant response rating", "setting": "soybean; [5]", "result": 0},
      {"measurement": "Plant response rating, Soybean", "setting": "soybean; [6]", "result": 0},
      {"measurement": "Soybean plant response rating", "setting": "soybean; [7]", "result": 0}
    ]}
  ]
}
